Earlier results as cited in patent publication US6749867B2, “Delivery system for omeprazole and its salts” (priority 2000, dated 2004).
Like-named read-outs stand apart in the source and are kept apart here.

Tests used:
[1] = not given; remark: listed apart in the source
[2] = in vivo

solubility in alkaline solution (alkaline solution, as the negatively charged ion): very soluble
solubility in water (water): very slightly soluble
half-life of degradation ([1]; acidic aqueous solutions, pH values below 4): less than 10 minutes
half-life of degradation ([1]; pH 6.5): about 18 hours
half-life of degradation ([1]; pH 11): several hundred
plasma half-life [2]: about 60 minutes
SMILES: COc1ccc2[nH]c([S+]([O-])Cc3ncc(C)c(OC)c3C)nc2c1 (stereo not drawn) [omeprazole, Omeprazole]
